# Measurements as given in EPA's ToxValDB 9.5 (doi:10.2903/j.efsa.2018.5307).
# Assays:
# [1] = tested on: Apis mellifera; details: acute, mortality
# [2] = tested on: Colinus virginianus
# [3] = tested on: Cyprinus carpio; details: acute; duration: 96 hours; mortality
# [4] = tested on: Daphnia magna; details: chronic/long-term; duration: 23 days; reproduction
# [5] = tested on: Oryctolagus sp.; details: developmental; development
# [6] = tested on: Pimephales promelas; details: chronic/long-term; development
# [7] = tested on: Rattus norvegicus
# [8] = tested on: Tagia sp.; details: chronic/long-term; reproduction
# [9] = tested on: Typhlodromus pyri; assay: LR50; higher = less toxic; details: acute; mortality
structure (smiles),measurement,setting,value
CCOP(=O)=O.CCOP(=O)=O.CCOP(=O)=O.[Al+3] [Fosetyl aluminum],LD50,[1]; dermal,> 100 µg/piece
same,LD50,"[1]; oral, unspecified",> 140 µg/piece
same,LD50,"[2]; acute, oral, mortality",> 2000 mg/kg-day
same,NOEL,[2]; reproduction developmental,216 mg/kg-day
same,LC50,[3],> 100 µg/mL
same,NOEC,[4],10.1 mg/L
same,NOAEL,[5],100 mg/kg-day
same,NOEC,[6],0.213 mg/L
same,LD50,"[7]; acute, oral, mortality",> 7080 mg/kg-day
same,NOAEL,"[7]; reproduction developmental, body weight",482 mg/kg-day
same,NOEC,[8],164 mg/kg
same,LR50,[9],> 8400 g/ha
